The record followed here is patent US20220289732A1, “HETEROCYCLIC WDR5 INHIBITORS AS ANTI-CANCER COMPOUNDS” (NOVARTIS AG, priority 2019, published 2022).

The target in one experiment is WDR5 (Homo sapiens, UniProt P61964). Description: WDR5 HTRF binding assay. Conditions: read-out: (a) WDR5 HTRF Pep Val v.1[Inhibitor/IC50]Qualified AC50. In short, it runs like this:
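6 nM WDR5 and 20 nM biotin-MLL1 WIN peptide (3762-3773) were incubated with compound (12-point, 3-fold dilutions) in pH 7.5 Hepes/NaCl/DTT buffer for 20 min at rt. Streptavidin-APC plus anti-His-Eu were then added for 1 hr, with HTRF read at 665/615. IC50 was fit from control-normalized activity; the counter assay used 15 nM biotin-PEG-His peptide.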

In experiment [1] the target is wild type MLL1 four-member complex (MLL1-4C) (Homo sapiens, UniProt P61964). Nature of the experiment: MLL1 LC-MS assay (SAH production). Conditions: read-out: (b) MLL LCMS Peptide Val.v.1 Qualified AC50. The experiment is classed as biochemical. The essentials: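 MLL1-4C (30 nM final) was preincubated 20 min with compound (3-fold dilutions, 8 or 12 points) and SAM in Tris-HCl pH 8.0 buffer. H3K4me0 peptide (histone H3[1-21]-biotin) was then added, giving final 2.5 μM SAM and 10 μM substrate, and reactions ran 120 min at rt. After TFA/d4-SAH quench, SAH was quantified by LC-MS/MS and IC50 fitted from control-normalised activity.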

Another experiment concerns MV4-11 cells. Description: MV4-11 6-day cell growth CTG (CellTiter-Glo) assay. The experiment is classed as cell-based. Conditions: Homo sapiens, MV4-11, 144 h, 6 days, read-out: (c) MLL/WDR5 cell proliferation assay//MLL/WDR5 proliferation MV4:11 Qualified AC50. The essentials:
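Exponentially growing MV4-11 AML cells (RPMI 1640, 10% FBS) seeded at 300 cells/well with 12-point 1:3 compound dilutions, top final concentration 50 μM. Viability read by CellTiter-Glo luminescence after 6 days at 37° C; % inhibition vs DMSO-only wells fitted to dose-response for IC50.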
For orientation: Cellular ATP, detected with luciferase, serves as a proxy for viable cell number.

Regarding `CCOc1cc([C@@H](C)N2CCc3c(cc(CCN4C[C@@H](O)[C@H]4C)cc3-c3cc(C)ncc3C)C2=O)ncc1C#N` [Example 223], the IC50 on WDR5 is 10 to 1000 nM. The AC50 (in experiment [1]; with MV4-11 cells) was 10 to 1000 nM throughout.

On to `CNc1nccn1Cc1cc2c(c(N3CC(OC)C3)c1)CCN([C@@H](C)c1cc(OC)c(F)cn1)C2=O` (single isomer, unassigned) [Example 90], for which, at WDR5, the IC50 was 10 to 1000 nM. The AC50 (in experiment [1]; in the experiment with MV4-11 cells) was 10 to 1000 nM in each case.

For `CCOc1cc(CN2CCc3c(cc(CCN(C)CC)cc3C(OC)C(F)(F)F)C2=O)ncc1C#N` (stereo not drawn) [Example 305, 4-ethoxy-6-((7-(2-(ethyl(methyl)amino)ethyl)-1-oxo-5-(2,2,2-trifluoro-1-methoxyethyl)-3,4-dihydroisoquinolin-2(1H)-yl)methyl)nicotinonitrile], the IC50 on WDR5 fell in the range of 10 to 1000 nM. Besides, the AC50 (in experiment [1]; in the experiment with MV4-11 cells) was 10 to 1000 nM each time.

For the compound `CCOc1cc([C@H](C)N2CCc3c(cc(CCN(C)CC)cc3-c3ccn(C)c(=O)c3Cl)C2=O)ncc1C#N` [Example 194, (S)-6-(1-(5-(3-chloro-1-methyl-2-oxo-1,2-dihydropyridin-4-yl)-7-(2-(ethyl(methyl)amino)ethyl)-1-oxo-3,4-dihydroisoquinolin-2(1H)-yl)ethyl)-4-ethoxynicotinonitrile], the IC50 on WDR5 was under 10 nM. In addition, the AC50 (in experiment [1]; with MV4-11 cells) was 10 to 1000 nM in each case.

On to `CCOc1cc([C@H](C)N2CCc3c(cc(Cn4cnc(C)c4)cc3-c3cn(C)nc3C)C2=O)ncc1C#N` [Example 276], for which the IC50 at WDR5 is under 10 nM. The AC50 (in experiment [1]; in the experiment with MV4-11 cells) was 10 to 1000 nM each time.

For the compound `CNc1nccn1Cc1cc2c(c(-c3cn(C)nc3C)c1)CCN(Cc1ccc(F)c(OC)c1)C2=O` [Example 58, 5-(1,3-dimethyl-1H-pyrazol-4-yl)-2-(4-fluoro-3-methoxybenzyl)-7-((2-(methylamino)-1H-imidazol-1-yl)methyl)-3,4-dihydroisoquinolin-1(2H)-one], at WDR5, the IC50 lay in the range of 10 to 1000 nM. Moreover, the AC50 (in experiment [1]; with MV4-11 cells) was 10 to 1000 nM throughout.

`CCOc1cc(CN2CCc3c(cc(CCN(C)CC)cc3-c3cc(C)cnc3C(F)F)C2=O)ncc1C#N` [Example 144, 6-((5-(2-(difluoromethyl)-5-methylpyridin-3-yl)-7-(2-(ethyl(methyl)amino)ethyl)-1-oxo-3,4-dihydroisoquinolin-2(1H)-yl)methyl)-4-ethoxynicotinonitrile]: on WDR5, the IC50 was 10 to 1000 nM. For the same compound, the AC50 (in experiment [1]; in the experiment on MV4-11 cells) was 10 to 1000 nM throughout.

Regarding `CCOc1cc(CN2CCc3c(cc(Cn4ccnc4C)cc3-n3nc(C)nc3C(F)F)C2=O)ncc1C#N` [Example 298], at WDR5, the IC50 is under 10 nM. For the same compound, the AC50 (in experiment [1]; with MV4-11 cells) was 10 to 1000 nM in each case.

For `CCOc1cc([C@H](C)N2CCc3c(cc(CCN(C)CC)cc3-c3cccnc3C)C2=O)ncc1C#N` [Example 139, (S)-4-ethoxy-6-(1-(7-(2-(ethyl(methyl)amino)ethyl)-5-(2-methylpyridin-3-yl)-1-oxo-3,4-dihydroisoquinolin-2(1H)-yl)ethyl)nicotinonitrile], the IC50 at WDR5 is under 10 nM. Besides, the AC50 (in experiment [1]; in the experiment with MV4-11 cells) was 10 to 1000 nM in each case.

Take `CCOc1cc([C@H](C)N2CCc3c(CN(C)C4COC4)cc(Cn4ccnc4NC)cc3C2=O)ncc1F` [Example 10, (S)-2-(1-(4-ethoxy-5-fluoropyridin-2-yl)ethyl)-5-((methyl(oxetan-3-yl)amino)methyl)-7-((2-(methylamino)-1H-imidazol-1-yl)methyl)-3,4-dihydroisoquinolin-1(2H)-one]: at WDR5, the IC50 is under 10 nM. In addition, the AC50 (in experiment [1]; in the experiment with MV4-11 cells) was 10 to 1000 nM each time.

As for `CNc1nccn1Cc1cc2c(c(-c3cn(C)nc3C)c1)CCN([C@@H](C)c1cc(OC)c(F)cn1)C2=O` [Example 62, (S)-5-(1,3-dimethyl-1H-pyrazol-4-yl)-2-(1-(5-fluoro-4-methoxypyridin-2-yl)ethyl)-7-((2-(methylamino)-1H-imidazol-1-yl)methyl)-3,4-dihydroisoquinolin-1(2H)-one], the IC50 on WDR5 fell in the range of 10 to 1000 nM. The AC50 (in experiment [1]; with MV4-11 cells) was 10 to 1000 nM throughout.

With `CCOc1cc([C@H](C)N2CCc3c(cc(Cn4ccnc4C)cc3-c3cn(C)c(=O)cc3C(F)(F)F)C2=O)ncc1C#N` [Example 288], the IC50 at WDR5 was under 10 nM. Besides, the AC50 in experiment [1] is 10 to 1000 nM; in the experiment with MV4-11 cells, under 10 nM.

`CCOc1cc([C@H](C)N2CCc3c(cc(Cn4cc(C)nc4C)cc3-c3cn(CCO)nc3C)C2=O)ncc1C#N` [Example 272]: the IC50 on WDR5 is under 10 nM. The AC50 (in experiment [1]; in the experiment with MV4-11 cells) was 10 to 1000 nM in each case.

In the case of `CCOc1cc([C@H](C)N2CCc3c(cc(CCN(C)CC)cc3-c3ccc(N)nc3C(F)(F)F)C2=O)ncc1C#N` [Example 198, (S)-6-(1-(5-(6-amino-2-(trifluoromethyl)pyridin-3-yl)-7-(2-(ethyl(methyl)amino)ethyl)-1-oxo-3,4-dihydroisoquinolin-2(1H)-yl)ethyl)-4-ethoxynicotinonitrile], the IC50 at WDR5 lay in the range of 10 to 1000 nM. Also, the AC50 in experiment [1] is 10 to 1000 nM; with MV4-11 cells it was under 10 nM.

As for `CNc1nccn1Cc1cc(-c2cc(CO)cnc2Cl)c2ccn(Cc3cc4c(C)cccc4[nH]3)c(=O)c2c1` [Example 107, 5-(2-chloro-5-(hydroxymethyl)pyridin-3-yl)-2-((4-methyl-1H-indol-2-yl)methyl)-7-((2-(methylamino)-1H-imidazol-1-yl)methyl)isoquinolin-1(2H)-one], the IC50 at WDR5 is 10 to 1000 nM. Further, the AC50 (in experiment [1]; with MV4-11 cells) was 10 to 1000 nM throughout.

Turning to `CCOc1cc([C@H](C)N2CCc3c(cc(CCN(C)CC)cc3-c3cc(CO)cnc3Cl)C2=O)ncc1C#N` [Example 124, (S)-6-(1-(5-(2-chloro-5-(hydroxymethyl)pyridin-3-yl)-7-(2-(ethyl(methyl)amino)ethyl)-1-oxo-3,4-dihydroisoquinolin-2(1H)-yl)ethyl)-4-ethoxynicotinonitrile], the IC50 on WDR5 is under 10 nM. Also, the AC50 (in experiment [1]; in the experiment with MV4-11 cells) was 10 to 1000 nM throughout.

`CNc1nccn1Cc1cc2c(c(-c3cc(CO)cnc3Cl)c1)CCN(Cc1cccc(OC)c1)C2=O` [Example 52, 5-(2-chloro-5-(hydroxymethyl)pyridin-3-yl)-2-(3-methoxybenzyl)-7-((2-(methylamino)-1H-imidazol-1-yl)methyl)-3,4-dihydroisoquinolin-1(2H)-one]: on WDR5, the IC50 was under 10 nM. In addition, the AC50 (in experiment [1]; in the experiment with MV4-11 cells) was 10 to 1000 nM throughout.

For `CCOc1cc(C(C)N2CCc3c(cc(CCN(C)CCF)cc3-c3cn(C)c(=O)cc3Cl)C2=O)ncc1C#N` (stereo not drawn) [Example 237], the IC50 on WDR5 is under 10 nM. Further, the AC50 (in experiment [1]; in the experiment with MV4-11 cells) was 10 to 1000 nM throughout.

For the compound `CCOc1cc([C@H](C)N2CCc3c(cc(CCN(C)CC)cc3-c3cc(N)ncc3Cl)C2=O)ncc1C#N` [Example 183, (S)-6-(1-(5-(2-amino-5-chloropyridin-4-yl)-7-(2-(ethyl(methyl)amino)ethyl)-1-oxo-3,4-dihydroisoquinolin-2(1H)-yl)ethyl)-4-ethoxynicotinonitrile], at WDR5, the IC50 is under 10 nM. Besides, the AC50 (in experiment [1]; with MV4-11 cells) was 10 to 1000 nM each time.
